Experimental data as given in US12685735B2 (Foghorn Therapeutics Inc., priority 2020, dated 2026).
Like-named read-outs stand apart in the source and are kept apart here.

Assays:
[1] = target: BRM (Homo sapiens, UniProt P51531); test: ATPase catalytic activity assay of BRM (ADP-Glo); format: biochemical
In short: (§1)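 In vitro biochemical ATPase assay; product ADP detected after removing leftover ATP and reconverting ADP to ATP for a luciferase signal.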

[2] = target: BRG-1 (Homo sapiens, UniProt P51532); test: ATPase catalytic activity assay of BRG-1 (ADP-Glo); format: biochemical; settings: ATPase catalytic activity, ADP-Glo; for Emax: read-out: BRG1 Max % Inhibition
Chain of BRG-1 (P51532 whole entry): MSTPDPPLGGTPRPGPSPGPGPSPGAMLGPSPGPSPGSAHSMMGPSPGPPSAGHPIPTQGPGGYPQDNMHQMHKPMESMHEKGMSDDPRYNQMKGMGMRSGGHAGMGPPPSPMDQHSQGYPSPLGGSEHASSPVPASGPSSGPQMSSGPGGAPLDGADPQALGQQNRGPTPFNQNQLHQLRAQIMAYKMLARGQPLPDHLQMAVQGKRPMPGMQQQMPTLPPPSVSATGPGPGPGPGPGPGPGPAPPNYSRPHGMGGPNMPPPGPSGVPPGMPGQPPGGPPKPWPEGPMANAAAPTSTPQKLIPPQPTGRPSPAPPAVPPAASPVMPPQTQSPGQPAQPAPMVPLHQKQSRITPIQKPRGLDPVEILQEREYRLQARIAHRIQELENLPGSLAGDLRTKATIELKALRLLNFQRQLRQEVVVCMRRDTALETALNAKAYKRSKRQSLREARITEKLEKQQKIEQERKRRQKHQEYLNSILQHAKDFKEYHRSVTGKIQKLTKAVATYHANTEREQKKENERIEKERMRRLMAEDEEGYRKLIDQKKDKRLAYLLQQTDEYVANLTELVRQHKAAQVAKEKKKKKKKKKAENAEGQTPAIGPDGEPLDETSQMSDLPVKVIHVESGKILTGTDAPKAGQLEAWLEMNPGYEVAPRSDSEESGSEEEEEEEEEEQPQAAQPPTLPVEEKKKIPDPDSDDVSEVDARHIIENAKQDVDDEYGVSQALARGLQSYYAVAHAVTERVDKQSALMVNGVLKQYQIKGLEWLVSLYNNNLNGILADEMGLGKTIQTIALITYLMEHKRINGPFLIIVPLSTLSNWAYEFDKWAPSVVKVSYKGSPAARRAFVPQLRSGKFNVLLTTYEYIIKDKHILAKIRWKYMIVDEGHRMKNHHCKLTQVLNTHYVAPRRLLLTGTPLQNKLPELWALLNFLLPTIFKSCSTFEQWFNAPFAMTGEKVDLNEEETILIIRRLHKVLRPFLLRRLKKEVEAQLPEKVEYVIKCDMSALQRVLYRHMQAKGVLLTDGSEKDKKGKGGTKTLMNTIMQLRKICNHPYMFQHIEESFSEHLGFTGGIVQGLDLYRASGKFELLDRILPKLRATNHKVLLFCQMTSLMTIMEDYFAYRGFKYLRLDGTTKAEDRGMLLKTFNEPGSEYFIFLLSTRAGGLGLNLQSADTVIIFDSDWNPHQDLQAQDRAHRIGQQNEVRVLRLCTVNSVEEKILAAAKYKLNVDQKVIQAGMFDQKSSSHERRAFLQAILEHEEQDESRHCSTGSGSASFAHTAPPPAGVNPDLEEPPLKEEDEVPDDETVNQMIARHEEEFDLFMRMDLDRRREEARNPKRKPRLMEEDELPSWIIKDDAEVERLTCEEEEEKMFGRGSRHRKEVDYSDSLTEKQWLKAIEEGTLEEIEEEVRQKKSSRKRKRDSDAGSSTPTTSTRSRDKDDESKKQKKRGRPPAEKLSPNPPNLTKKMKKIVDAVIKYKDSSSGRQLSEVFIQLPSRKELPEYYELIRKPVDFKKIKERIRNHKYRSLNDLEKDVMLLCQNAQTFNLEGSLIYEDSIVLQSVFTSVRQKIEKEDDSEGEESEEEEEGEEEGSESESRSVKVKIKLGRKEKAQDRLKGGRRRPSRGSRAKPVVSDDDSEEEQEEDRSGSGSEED
In short: as §1

[3] = 30 nM BRM, 400 μM ATP, read-out: BRM IC50 (μM)*
[4] = 30 nM BRG-1, 400 μM ATP, read-out: BRG1 IC50 (μM)*

Chain of BRM (P51531 whole entry): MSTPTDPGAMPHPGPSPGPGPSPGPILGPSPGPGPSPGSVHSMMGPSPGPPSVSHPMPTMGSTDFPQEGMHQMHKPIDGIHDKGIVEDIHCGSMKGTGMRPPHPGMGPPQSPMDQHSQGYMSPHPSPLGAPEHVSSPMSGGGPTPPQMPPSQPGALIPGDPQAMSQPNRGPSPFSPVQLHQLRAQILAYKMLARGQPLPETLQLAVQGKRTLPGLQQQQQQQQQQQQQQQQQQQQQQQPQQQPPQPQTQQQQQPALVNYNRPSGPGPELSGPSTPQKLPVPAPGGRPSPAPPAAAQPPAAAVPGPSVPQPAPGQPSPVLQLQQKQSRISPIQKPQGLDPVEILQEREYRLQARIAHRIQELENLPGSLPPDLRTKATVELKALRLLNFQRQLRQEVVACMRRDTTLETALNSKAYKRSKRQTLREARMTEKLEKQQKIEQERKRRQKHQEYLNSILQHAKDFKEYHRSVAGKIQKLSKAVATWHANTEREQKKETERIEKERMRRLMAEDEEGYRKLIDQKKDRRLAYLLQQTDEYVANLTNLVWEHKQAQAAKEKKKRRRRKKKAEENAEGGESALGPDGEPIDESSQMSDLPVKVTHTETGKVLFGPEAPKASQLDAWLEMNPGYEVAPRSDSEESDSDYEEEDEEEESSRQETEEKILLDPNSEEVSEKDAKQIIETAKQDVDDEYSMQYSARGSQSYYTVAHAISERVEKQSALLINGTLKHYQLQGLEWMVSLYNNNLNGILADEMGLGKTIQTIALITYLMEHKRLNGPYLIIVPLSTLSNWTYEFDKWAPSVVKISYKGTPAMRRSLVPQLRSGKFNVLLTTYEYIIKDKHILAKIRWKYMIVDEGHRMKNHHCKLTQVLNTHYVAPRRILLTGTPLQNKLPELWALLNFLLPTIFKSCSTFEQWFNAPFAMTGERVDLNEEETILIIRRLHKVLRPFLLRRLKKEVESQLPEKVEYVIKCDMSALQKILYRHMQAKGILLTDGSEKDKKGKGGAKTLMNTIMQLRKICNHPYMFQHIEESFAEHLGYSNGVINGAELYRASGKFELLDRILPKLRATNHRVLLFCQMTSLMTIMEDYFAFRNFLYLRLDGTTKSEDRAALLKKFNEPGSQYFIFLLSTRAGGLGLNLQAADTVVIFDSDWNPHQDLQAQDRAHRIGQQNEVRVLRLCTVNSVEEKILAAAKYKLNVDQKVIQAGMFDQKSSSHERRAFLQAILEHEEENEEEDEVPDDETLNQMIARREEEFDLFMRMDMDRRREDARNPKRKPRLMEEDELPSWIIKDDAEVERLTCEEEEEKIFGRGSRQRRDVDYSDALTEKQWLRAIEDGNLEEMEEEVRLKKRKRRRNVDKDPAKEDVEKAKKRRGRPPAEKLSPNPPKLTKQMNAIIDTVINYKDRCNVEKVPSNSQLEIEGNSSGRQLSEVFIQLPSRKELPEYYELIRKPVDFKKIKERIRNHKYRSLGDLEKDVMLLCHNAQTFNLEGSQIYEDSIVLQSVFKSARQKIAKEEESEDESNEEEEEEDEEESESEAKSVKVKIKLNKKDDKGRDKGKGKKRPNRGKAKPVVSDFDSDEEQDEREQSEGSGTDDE

SMILES	BRM Max % Inhibition ([1]; 30 nM BRM, 400 μM ATP) [%]	IC50 [1, 3] [µM]	IC50 [2, 4] [µM]	Emax ([2]; 30 nM BRG-1, 400 μM ATP) [%]	BRM Max % Inhibition [1] [%]	IC50 ([1]; read-out: BRM IC50 (μM)*) [µM]	IC50 ([2]; read-out: BRG1 IC50 (μM)*) [µM]	Emax [2] [%]	IC50 ([1]; BRM IC50 (μM)*) [µM]	IC50 ([2]; BRG1 IC50 (μM)*) [µM]
CC(C)S(=O)(=O)c1cc(CO)cc(C(=O)NCC(=O)Nc2nc(-c3cccc(-c4ccncc4)c3)cs2)c1 [Compound 15, 3-(hydroxymethyl)-5-(isopropylsulfonyl)-N-(2-oxo-2-((4-(3-(pyridin-4-yl)phenyl)thiazol-2-yl)amino)ethyl)benzamide]	–	–	–	–	>50	1 to 5	> 5	> 40	–	–
Cc1cc(C(=O)NCC(=O)Nc2nc(-c3cccc(-c4ccncc4)c3)cs2)cc(S(=O)(=O)C(C)C)c1C [Compound 16, 3-(isopropylsulfonyl)-4,5-dimethyl-N-(2-oxo-2-((4-(3-(pyridin-4-yl)phenyl)thiazol-2-yl)amino)ethyl)benzamide]	–	–	–	–	>70	0.1 to 1	> 5	< 30	–	–
CC(C)S(=O)(=O)c1cccc(C(=O)NCC(=O)Nc2nc(-c3cccc(-c4ccnc(C(F)(F)F)c4)c3)cs2)c1 [Compound 19, 3-(isopropylsulfonyl)-N-(2-oxo-2-((4-(3-(2-(trifluoromethyl)pyridin-4-yl)phenyl)thiazol-2-yl)amino)ethyl)benzamide]	–	–	–	–	>90	0.1 to 1	1 to 5	–	–	–
Cc1cc(C(=O)NCC(=O)Nc2nc(-c3cccc(-c4ccncc4)c3)cs2)cc(S(=O)(=O)C(C)C)c1 [Compound 20, 3-(isopropylsulfonyl)-5-methyl-N-(2-oxo-2-((4-(3-(pyridin-4-yl)phenyl)thiazol-2-yl)amino)ethyl)benzamide]	–	–	–	–	>60	0.1 to 1	> 5	< 30	–	–
CC(C)S(=O)(=O)c1cccc(C(=O)NCC(=O)Nc2nc(-c3cccc(-c4cc(C#N)cc(C#N)c4)c3)cs2)c1 [Compound 21, N-(2-((4-(3′,5′-dicyano-[1,1′-biphenyl]-3-yl)thiazol-2-yl)amino)-2-oxoethyl)-3-(isopropylsulfonyl)benzamide]	–	–	–	–	>80	0.1 to 1	1 to 5	> 70	–	–
CC(C)S(=O)(=O)c1cccc(C(=O)NCC(=O)Nc2nc(-c3cccc(-c4ccnc(N)c4)c3)cs2)c1 [Compound 22, N-(2-((4-(3-(2-aminopyridin-4-yl)phenyl)thiazol-2-yl)amino)-2-oxoethyl)-3-(isopropylsulfonyl)benzamide]	–	–	–	–	>95	–	–	–	< 0.1	0.1 to 1
CC(C)S(=O)(=O)c1cccc(C(=O)NCC(=O)Nc2nc(-c3cccc(-c4cc(C#N)cc(CO)c4)c3)cs2)c1 [Compound 23, N-(2-((4-(3′-cyano-5′-(hydroxymethyl)-[1,1′-biphenyl]-3-yl)thiazol-2-yl)amino)-2-oxoethyl)-3-(isopropylsulfonyl)benzamide]	–	–	–	–	>90	0.1 to 1	0.1 to 1	> 80	–	–
CC(C)S(=O)(=O)c1cccc(C(=O)NCC(=O)Nc2nc(-c3cccc(-c4cccc(C#N)c4)c3)cs2)c1 [Compound 24, N-(2-((4-(3′-cyano-[1,1′-biphenyl]-3-yl)thiazol-2-yl)amino)-2-oxoethyl)-3-(isopropylsulfonyl)benzamide]	–	–	–	–	>90	0.1 to 1	1 to 5	–	–	–
CC(=O)N(C)c1cc(-c2cccc(-c3csc(NC(=O)CNC(=O)c4cccc(S(=O)(=O)C(C)C)c4)n3)c2)ccn1 [Compound 25, 3-(isopropylsulfonyl)-N-(2-((4-(3-(2-(N-methylacetamido)pyridin-4-yl)phenyl)thiazol-2-yl)amino)-2-oxoethyl)benzamide]	–	–	–	–	>90	< 0.1	0.1 to 1	> 80	–	–
CC(C)S(=O)(=O)c1cccc(C(=O)NCC(=O)Nc2nc(-c3cccc(-c4ccnc(CO)c4)c3)cs2)c1 [Compound 26, N-(2-((4-(3-(2-(hydroxymethyl)pyridin-4-yl)phenyl)thiazol-2-yl)amino)-2-oxoethyl)-3-(isopropylsulfonyl)benzamide]	–	–	–	–	>90	< 0.1	0.1 to 1	–	–	–
CC(C)S(=O)(=O)c1cccc(C(=O)NCC(=O)Nc2nc(-c3cccc(-c4cc(CO)cc(C(F)(F)F)c4)c3)cs2)c1 [Compound 27, N-(2-((4-(3′-(hydroxymethyl)-5′-(trifluoromethyl)-[1,1′-biphenyl]-3-yl)thiazol-2-yl)amino)-2-oxoethyl)-3-(isopropylsulfonyl)benzamide]	–	–	–	–	>95	< 0.1	0.1 to 1	–	–	–
CC(C)S(=O)(=O)c1cccc(C(=O)NCC(=O)Nc2nc(-c3cccc(-c4cccc(Cl)c4)c3)cs2)c1 [Compound 28, N-(2-((4-(3′-chloro-[1,1′-biphenyl]-3-yl)thiazol-2-yl)amino)-2-oxoethyl)-3-(isopropylsulfonyl)benzamide]	–	–	–	–	>80	–	–	–	0.1 to 1	1 to 5
COc1cc(-c2cccc(-c3csc(NC(=O)CNC(=O)c4cccc(S(=O)(=O)C(C)C)c4)n3)c2)ccn1 [Compound 29, 3-(isopropylsulfonyl)-N-(2-((4-(3-(2-methoxypyridin-4-yl)phenyl)thiazol-2-yl)amino)-2-oxoethyl)benzamide]	–	–	–	–	>90	0.1 to 1	0.1 to 1	–	–	–
CC(C)S(=O)(=O)c1cccc(C(=O)NCC(=O)Nc2nc(-c3cccc(-c4cc(Cl)cc(Cl)c4)c3)cs2)c1 [Compound 30, N-(2-((4-(3′,5′-dichloro-[1,1′-biphenyl]-3-yl)thiazol-2-yl)amino)-2-oxoethyl)-3-(isopropylsulfonyl)benzamide]	–	–	–	–	>90	0.1 to 1	1 to 5	–	–	–
CC(C)S(=O)(=O)c1cccc(C(=O)NCC(=O)Nc2nc(-c3cccc(-c4cccc(CN)c4)c3)cs2)c1 [Compound 31, N-(2-((4-(3′-(aminomethyl)-[1,1′-biphenyl]-3-yl)thiazol-2-yl)amino)-2-oxoethyl)-3-(isopropylsulfonyl)benzamide]	–	–	–	–	>90	0.1 to 1	1 to 5	> 70	–	–
COC[C@H](NC(=O)c1cccc(S(=O)(=O)C(C)C)c1)C(=O)Nc1nc(-c2cccc(-c3ccnc(C)c3)c2)cs1 [Compound 32, (S)-3-(isopropylsulfonyl)-N-(3-methoxy-1-((4-(3-(2-methylpyridin-4-yl)phenyl)thiazol-2-yl)amino)-1-oxopropan-2-yl)benzamide]	–	–	–	–	>95	0.1 to 1	0.1 to 1	> 80	–	–

The next lines start with results.

BRM Max % Inhibition ([1]; 30 nM BRM, 400 μM ATP) [%]	IC50 [1, 3] [µM]	IC50 [2, 4] [µM]	Emax ([2]; 30 nM BRG-1, 400 μM ATP) [%]	BRM Max % Inhibition [1] [%]	IC50 ([1]; read-out: BRM IC50 (μM)*) [µM]	IC50 ([2]; read-out: BRG1 IC50 (μM)*) [µM]	Emax [2] [%]	SMILES	IC50 ([1]; BRM IC50 (μM)*) [µM]	IC50 ([2]; BRG1 IC50 (μM)*) [µM]
>95	< 0.1	< 0.1	> 95	–	–	–	–	CC1(C#N)CCOc2ccc(C(=O)NCC(=O)Nc3nc(-c4cccc(-c5ccncc5)c4)cs3)cc21 (stereo in doubt) [Compound 440, (S)-4-cyano-4-methyl-N-(2-oxo-2-((4-(3-(pyridin-4-yl)phenyl)thiazol-2-yl)amino)ethyl)chromane-6-carboxamide]	–	–
>90	0.1 to 1	> 5	> 90	–	–	–	–	C[C@@H]1CN(c2cccc(-c3csc(NC(=O)CNC(=O)c4cccc(C5(F)CCOC5)c4)n3)n2)C[C@H](C)O1 (stereo in doubt) [Compound 441, N-(2-((4-(6-((cis)-2,6-dimethylmorpholino)pyridin-2-yl)thiazol-2-yl)amino)-2-oxoethyl)-3-((R)-3-fluorotetrahydrofuran-3-yl)benzamide]	–	–
>95	< 0.1	0.1 to 1	> 95	–	–	–	–	CC1(C#N)CCOc2ccc(C(=O)NCC(=O)Nc3nc(-c4cccc(C(F)F)c4)cs3)cc21 (stereo in doubt) [Compound 442, (S)-4-cyano-N-(2-((4-(3-(difluoromethyl)phenyl)thiazol-2-yl)amino)-2-oxoethyl)-4-methylchromane-6-carboxamide]	–	–
–	–	–	–	>95	< 0.1	< 0.1	> 95	Cc1nccc(-c2cccc(-c3csc(NC(=O)CNC(=O)c4cccc(S(=O)(=O)C(C)C)c4)n3)c2)n1 [Compound 13, 3-(isopropylsulfonyl)-N-(2-((4-(3-(2-methylpyrimidin-4-yl)phenyl)thiazol-2-yl)amino)-2-oxoethyl)benzamide]	–	–
–	–	–	–	>95	< 0.1	0.1 to 1	> 80	CC(C)S(=O)(=O)c1cccc(C(=O)NCC(=O)Nc2nc(-c3cccc(N4C[C@@H](C)O[C@@H](C)C4)c3)cs2)c1 [Compound 14, N-(2-((4-(3-((2S,6R)-2,6-dimethylmorpholino)phenyl)thiazol-2-yl)amino)-2-oxoethyl)-3-(isopropylsulfonyl)benzamide]	–	–
–	–	–	–	>90	0.1 to 1	> 5	> 60	CC(C)S(=O)(=O)c1cccc(C(=O)NCC(=O)Nc2nc(-c3cccc(CO[C@H]4CC[C@H](O)CC4)c3)cs2)c1 [Compound 17, N-(2-((4-(3-((((1R,4R)-4-hydroxycyclohexyl)oxy)methyl)phenyl)thiazol-2-yl)amino)-2-oxoethyl)-3-(isopropylsulfonyl)benzamide]	–	–
–	–	–	–	>95	< 0.1	< 0.1	> 95	Cc1cc(-c2cccc(-c3csc(NC(=O)CNC(=O)c4cccc(S(=O)(=O)C(C)C)c4)n3)c2)cc(C)n1 [Compound 18, N-(2-((4-(3-(2,6-dimethylpyridin-4-yl)phenyl)thiazol-2-yl)amino)-2-oxoethyl)-3-(isopropylsulfonyl)benzamide]	–	–
